Measured values reported in BindingDB's records for patent US20230271968 (Beijing Tide Pharmaceutical, 2023).

Target: Serine/threonine-protein kinase ATR (Homo sapiens, UniProt Q13535)
Experiment: Assay of ATR Kinase Activity
Description: The amount of phosphorylated protein was determined by time-resolved fluorescence in this assay. The amount of phosphorylated protein was detected by anti-p53-phospho-(serine 15)-K-specific antibody (Cisbio, art. No.: 61GSTDLA) and d2 labeled anti-GST antibody (Cisbio, art. No. 61P08KAE). […] The reagents used above were purchased from Sigma or Invitrogen, except for those whose manufacturers were mentioned.

Chain of Serine/threonine-protein kinase ATR (Q13535 whole entry): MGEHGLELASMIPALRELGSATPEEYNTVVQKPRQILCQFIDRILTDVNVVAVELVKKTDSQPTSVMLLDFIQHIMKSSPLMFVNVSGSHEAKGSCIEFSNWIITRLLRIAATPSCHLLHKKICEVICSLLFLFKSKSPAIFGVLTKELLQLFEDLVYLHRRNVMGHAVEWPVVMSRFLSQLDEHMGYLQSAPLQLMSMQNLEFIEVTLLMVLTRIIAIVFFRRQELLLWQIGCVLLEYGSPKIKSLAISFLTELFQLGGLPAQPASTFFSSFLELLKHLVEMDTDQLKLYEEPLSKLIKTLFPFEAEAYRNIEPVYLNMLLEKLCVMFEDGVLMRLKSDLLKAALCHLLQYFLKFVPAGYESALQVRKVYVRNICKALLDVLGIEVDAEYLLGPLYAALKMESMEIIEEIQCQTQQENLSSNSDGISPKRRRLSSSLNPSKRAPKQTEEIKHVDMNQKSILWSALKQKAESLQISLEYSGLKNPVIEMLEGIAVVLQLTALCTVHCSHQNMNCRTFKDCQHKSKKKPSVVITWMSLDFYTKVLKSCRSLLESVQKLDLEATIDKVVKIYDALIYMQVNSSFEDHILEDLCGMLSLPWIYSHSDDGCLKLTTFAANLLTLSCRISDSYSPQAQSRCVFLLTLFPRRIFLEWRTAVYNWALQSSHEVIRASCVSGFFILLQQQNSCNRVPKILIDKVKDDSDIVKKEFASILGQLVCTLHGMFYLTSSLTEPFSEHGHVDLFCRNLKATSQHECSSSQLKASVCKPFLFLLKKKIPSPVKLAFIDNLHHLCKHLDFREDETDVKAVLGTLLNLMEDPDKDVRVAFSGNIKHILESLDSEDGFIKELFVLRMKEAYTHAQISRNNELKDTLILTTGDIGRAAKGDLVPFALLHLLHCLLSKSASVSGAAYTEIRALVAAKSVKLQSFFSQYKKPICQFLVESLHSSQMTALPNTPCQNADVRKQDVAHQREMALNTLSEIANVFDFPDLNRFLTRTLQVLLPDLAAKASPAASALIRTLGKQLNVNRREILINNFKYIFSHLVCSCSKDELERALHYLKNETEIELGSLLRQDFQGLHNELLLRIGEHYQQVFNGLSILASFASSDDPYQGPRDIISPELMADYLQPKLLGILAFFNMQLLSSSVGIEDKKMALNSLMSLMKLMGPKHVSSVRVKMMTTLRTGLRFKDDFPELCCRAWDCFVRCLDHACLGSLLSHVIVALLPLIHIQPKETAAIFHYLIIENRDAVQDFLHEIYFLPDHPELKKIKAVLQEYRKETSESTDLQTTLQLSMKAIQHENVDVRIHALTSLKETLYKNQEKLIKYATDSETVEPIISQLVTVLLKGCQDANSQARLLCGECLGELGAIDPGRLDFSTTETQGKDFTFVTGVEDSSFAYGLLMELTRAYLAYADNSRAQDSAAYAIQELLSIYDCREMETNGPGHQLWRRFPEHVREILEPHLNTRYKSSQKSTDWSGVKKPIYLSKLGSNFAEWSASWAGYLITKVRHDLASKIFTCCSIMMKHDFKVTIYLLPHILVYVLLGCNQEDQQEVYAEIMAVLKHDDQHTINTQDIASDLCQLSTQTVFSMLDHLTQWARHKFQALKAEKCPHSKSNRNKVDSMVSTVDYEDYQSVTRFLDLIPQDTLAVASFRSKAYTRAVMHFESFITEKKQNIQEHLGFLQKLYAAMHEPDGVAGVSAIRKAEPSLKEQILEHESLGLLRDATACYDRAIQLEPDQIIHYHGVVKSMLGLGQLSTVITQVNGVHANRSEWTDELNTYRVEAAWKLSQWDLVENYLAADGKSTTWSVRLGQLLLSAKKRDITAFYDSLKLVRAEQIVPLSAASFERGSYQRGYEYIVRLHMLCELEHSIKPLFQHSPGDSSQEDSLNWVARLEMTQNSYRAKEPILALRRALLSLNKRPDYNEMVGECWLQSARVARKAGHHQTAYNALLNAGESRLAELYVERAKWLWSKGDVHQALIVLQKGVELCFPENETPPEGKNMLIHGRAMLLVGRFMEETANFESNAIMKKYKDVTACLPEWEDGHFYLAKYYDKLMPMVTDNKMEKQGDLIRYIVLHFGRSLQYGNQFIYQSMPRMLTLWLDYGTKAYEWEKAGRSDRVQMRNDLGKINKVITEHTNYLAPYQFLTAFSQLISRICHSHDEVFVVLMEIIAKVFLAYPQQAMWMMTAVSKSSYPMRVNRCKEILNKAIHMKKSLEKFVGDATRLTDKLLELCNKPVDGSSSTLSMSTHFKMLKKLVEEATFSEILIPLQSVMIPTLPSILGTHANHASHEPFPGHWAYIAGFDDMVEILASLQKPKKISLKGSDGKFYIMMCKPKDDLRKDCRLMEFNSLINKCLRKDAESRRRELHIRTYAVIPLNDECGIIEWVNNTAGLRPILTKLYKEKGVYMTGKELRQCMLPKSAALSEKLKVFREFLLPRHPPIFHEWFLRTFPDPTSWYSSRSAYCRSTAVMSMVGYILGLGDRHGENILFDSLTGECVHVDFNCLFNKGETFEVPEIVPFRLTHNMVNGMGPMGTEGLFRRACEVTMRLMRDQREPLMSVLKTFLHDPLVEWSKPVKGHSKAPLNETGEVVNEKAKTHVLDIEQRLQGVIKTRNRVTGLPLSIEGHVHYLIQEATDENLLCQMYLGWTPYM

## Cc1nn(-c2cncc(C#N)c2)c(C)c1-c1cc(N2CCOC[C@H]2C)nc2c(-c3ccn[nH]3)cnn12 [US20230271968, Compound A11]
  IC50: 9 nM
